Inconclusive results and toxic doses are left out.
Test system: P388 leukemia ip, CD2F1 mice, survival T/C
Experiment: NCI In Vivo Anticancer Drug Screen. Data for tumor model P388 Leukemia (intraperitoneal) in CD2F1 (CDF1) mice
Details: endpoint: median survival time, higher = longer survival
Summary of the method: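 Mice carrying the transplanted tumor received test compound or vehicle. Survival was recorded in each group, and the value is the treated-group measurement divided by that of the vehicle-treated control group.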

[1] = dose: 60.0 mg/kg/injection, schedule: Q01DX005 (ip), vehicle: saline with Tween-80
[2] = dose: 120.0 mg/kg/injection, schedule: Q01DX005 (ip), vehicle: saline with Tween-80
[3] = dose: 240.0 mg/kg/injection, schedule: Q01DX005 (ip), vehicle: saline with Tween-80
[4] = dose: 100.0 mg/kg/injection, schedule: Q04DX002 (ip), vehicle: saline with Tween-80
[5] = dose: 200.0 mg/kg/injection, schedule: Q04DX002 (ip), vehicle: saline with Tween-80
[6] = dose: 400.0 mg/kg/injection, schedule: Q04DX002 (ip), vehicle: saline with Tween-80
[7] = dose: 100.0 mg/kg/injection, schedule: Q01DX009 (ip), vehicle: Klucel (hydroxypropylcellulose) (HPC)
[8] = dose: 50.0 mg/kg/injection, schedule: Q01DX009 (ip), vehicle: Klucel (hydroxypropylcellulose) (HPC)
[9] = dose: 200.0 mg/kg/injection, schedule: Q01DX009 (ip), vehicle: Klucel (hydroxypropylcellulose) (HPC)
[10] = dose: 50.0 mg/kg/injection, schedule: Q01DX005 (ip), vehicle: Klucel (hydroxypropylcellulose) (HPC)
[11] = dose: 100.0 mg/kg/injection, schedule: Q01DX005 (ip), vehicle: Klucel (hydroxypropylcellulose) (HPC)
[12] = dose: 200.0 mg/kg/injection, schedule: Q01DX005 (ip), vehicle: Klucel (hydroxypropylcellulose) (HPC)

## O=C1CC2(CCc3ccccc32)C(=O)N1CN1CCOCC1 (stereo not given)
[1]
  T/C: 100 % of control
[2]
  T/C: 104 % of control
[3]
  T/C: 100 % of control

## Cc1cc(Cl)nc2nc(Cl)ccc12
dose: 50.0 mg/kg/injection, schedule: Q01DX005 (ip), vehicle: saline with Tween-80
  T/C: 101 % of control
dose: 100.0 mg/kg/injection, schedule: Q01DX005 (ip), vehicle: saline with Tween-80
  T/C: 93 % of control

## Clc1ccc(C2=Nc3ccccc3SC(c3ccco3)C2)cc1Cl (stereo not given)
[4]
  T/C: 100 % of control
[5]
  T/C: 96 % of control
[6]
  T/C: 102 % of control

## Cc1cc(C)c(CCl)c(C)c1CCl
dose: 25.0 mg/kg/injection, schedule: Q01DX009 (ip), vehicle: Klucel (hydroxypropylcellulose) (HPC)
  T/C: 106 % of control
[7]
  T/C: 100 % of control

## O=Cc1ccc(C=O)cc1
[4]
  T/C: 98 % of control
[5]
  T/C: 102 % of control
[6]
  T/C: 102 % of control

## N#CC1C(=O)NC(=O)C(C#N)C1c1ccc(C2C(C#N)C(=O)NC(=O)C2C#N)cc1 (stereo not given)
[8]
  T/C: 105 % of control
[7]
  T/C: 100 % of control
[9]
  T/C: 113 % of control

## C=C(C)C1C2CC3(C)C4(CO4)C4OC4C3(O)C1C(=O)O2 (stereo not given)
dose: 0.31 mg/kg/injection, schedule: Q01DX005 (ip), vehicle: Klucel (hydroxypropylcellulose) (HPC)
  T/C: 97 % of control
dose: 0.62 mg/kg/injection, schedule: Q01DX005 (ip), vehicle: Klucel (hydroxypropylcellulose) (HPC)
  T/C: 100 % of control
dose: 1.25 mg/kg/injection, schedule: Q01DX005 (ip), vehicle: Klucel (hydroxypropylcellulose) (HPC)
  T/C: 102 % of control

## O=C1N(Br)C(=O)C(c2ccc(Cl)cc2)(c2ccc(Cl)cc2)N1Br
dose: 11.0 mg/kg/injection, schedule: Q01DX009 (ip), vehicle: saline with Tween-80
  T/C: 122 % of control
dose: 150.0 mg/kg/injection, schedule: Q01DX009 (ip), vehicle: saline with Tween-80
  T/C: 154 % of control

## CC1C(C)(C)P(C)(=O)C1(C)C (stereo not given)
[4]
  T/C: 89 % of control
[5]
  T/C: 97 % of control

## CCCCCCCCCCCCCCCCCC[N+](C)(C)c1nc(Cl)nc(Cl)n1
dose: 25.0 mg/kg/injection, schedule: Q01DX009 (ip), vehicle: saline
  T/C: 100 % of control
dose: 50.0 mg/kg/injection, schedule: Q01DX009 (ip), vehicle: saline
  T/C: 91 % of control

## CC12OC(=O)C(C(N)=O)=C1C=C(c1ccccc1)CC2c1ccccc1 (stereo not given)
[1]
  T/C: 96 % of control
[2]
  T/C: 96 % of control
[3]
  T/C: 89 % of control

## O=C1/C(=C/c2cccc(O)c2O)SC(=S)N1Cc1ccco1
[10]
  T/C: 102 % of control
[11]
  T/C: 106 % of control
[12]
  T/C: 103 % of control

## Nc1nc(-c2cc3cc(Cl)ccc3o2)cs1
[8]
  T/C: 101 % of control
[7]
  T/C: 101 % of control
[9]
  T/C: 100 % of control

## c1ccc2c(c1)NC1=C(CSCC1)c1nncn1-2
dose: 100.0 mg/kg/injection, schedule: Q05DX002 (ip), vehicle: Klucel (hydroxypropylcellulose) (HPC)
  T/C: 104 % of control
dose: 200.0 mg/kg/injection, schedule: Q05DX002 (ip), vehicle: Klucel (hydroxypropylcellulose) (HPC)
  T/C: 100 % of control
dose: 400.0 mg/kg/injection, schedule: Q05DX002 (ip), vehicle: Klucel (hydroxypropylcellulose) (HPC)
  T/C: 109 % of control

## O=c1oc(-c2cccc(-c3nc4c(c(=O)o3)CCS4)c2)nc2c1CCS2
[10]
  T/C: 97 % of control
[11]
  T/C: 100 % of control
[12]
  T/C: 91 % of control
